Data: US8716347B2, “Tramadol for the treatment of functional gastrointestinal disorders” (Euro-Celtique S.A., priority 2000, dated 2014)
Counter-ions that a name gives are not always drawn.

Columns and labels:
gut transit time = details: in vivo; cited from earlier work
[1] = test system: functional gastrointestinal disorder (diarrhoea with abdominal pain); assay: Treatment of patients with abdominal pain and diarrhoea with normal release tramadol (case reports); format: in vivo, human; details: 50 mg normal release twice daily
[2] = test system: patients started on tramadol pain therapy; details: initially when started on tramadol pain therapy; cited from earlier work
[3] = Example 2: person with abdominal pain and diarrhoea

## CN(C)CCCN1c2ccccc2CCc2ccccc21 [imipramine]
Gut transit time
  effect on gut transit time: increase gut transit time

## COc1cccc(C2(O)CCCCC2CN(C)C)c1 (stereo not shown) [tramadol, 2-[(Dimethylamino)methyl]-1-(3-methoxyphenyl)cyclohexanol]
[1]; [3]
  abdominal pain after treatment: relief of pain
  bowel movements after treatment: normal bowel movements
[1]; Example 2: person
  side effect: some drowsiness
[2]
  proportion of patients suffering nausea and vomiting: one third and a half

## COc1cccc(C2(O)CCCCC2CN(C)C)c1 (stereo not shown) [tramadol hydrochloride]
[1]; Example 1: person, long term chronic refractory diarrhoea
  bowel movements after treatment: normal bowel movements
[1]; Example 1: person, severe persistent abdominal pain
  abdominal pain after treatment: absence of pain
